US20090317455A1, “REVERSE TARGETING LIPID VESICLE” (ASTELLAS PHARMA INC., priority 2006, published 2009)

Settings: 10 mg/kg adriamycin, intravenous (tail vein) on Days 8, 10 and 12; compared with Vehicle; FIG. 1(A)
Description: The presence of weight loss as a side effect of adriamycin encapsulated in the liposome was assessed. […] Each of the drugs was intravenously (tail vein) administered to each mouse group on Days 8, 10 and 12 following the sensitization day (Day 0) (total of three doses). […] The 10 mg/kg (weight) adriamycin is a dose that gives medicinal benefits as a cancer chemotherapeutic agent.
Meanwhile, weight loss as a side effect was also assessed.
Each of the drugs was intravenously (tail vein) administered to each mouse group on Days 8, 10 and 12 following the sensitization day (Day 0) (total of three doses).

COc1cccc2c1C(=O)c1c(O)c3c(c(O)c1C2=O)C[C@@](O)(C(=O)CO)C[C@@H]3O[C@H]1C[C@H](N)[C@H](O)[C@H](C)O1 [adriamycin]
weight loss as a side effect: obvious weight loss
